{"source": "patent US5962314A", "about": "“Calcium receptor-active molecules” (priority 1997, dated 1999)", "key": {"[1]": {"tested_on": "serum ionized calcium", "assay": "serum ionized Ca2+ in rats", "assay_type": "in vivo, rat", "conditions": "NPS R-467 single oral dose, 3 hours", "description": "Compounds shown to activate the bovine parathyroid cell calcium receptor in vitro were tested for hypocalcemic activity in vivo. Male Sprague-Dawley rats (200 g) were maintained on a low calcium diet for one week prior to receiving test substance or vehicle as control. Blood was collected from the tail vein three hours after the intra-peritoneal administration of NPS 467. […] Serum total calcium, albumin and phosphate were measured by techniques well known in the art.\nRats (male, Sprague-Dawley, 250-300 g) were fed standard rat chow and fasted overnight prior to the experiment. NPS R-467 was suspended in corn oil and administered as a single oral dose through a gavage needle. Three hours later a sample of blood was taken from the tail vein and assessed for ionized Ca^2+ levels."}, "[2]": {"molecular_target": "T1, C-cell calcium receptor (Rattus norvegicus, UniProt P48442)", "T1 construct": "Neoplastic C-cells derived from a rat medullary thyroid carcinoma (rMTC 6-23); host or cells: rMTC 6-23 cells", "T1 sequence (P48442 20-1079)": "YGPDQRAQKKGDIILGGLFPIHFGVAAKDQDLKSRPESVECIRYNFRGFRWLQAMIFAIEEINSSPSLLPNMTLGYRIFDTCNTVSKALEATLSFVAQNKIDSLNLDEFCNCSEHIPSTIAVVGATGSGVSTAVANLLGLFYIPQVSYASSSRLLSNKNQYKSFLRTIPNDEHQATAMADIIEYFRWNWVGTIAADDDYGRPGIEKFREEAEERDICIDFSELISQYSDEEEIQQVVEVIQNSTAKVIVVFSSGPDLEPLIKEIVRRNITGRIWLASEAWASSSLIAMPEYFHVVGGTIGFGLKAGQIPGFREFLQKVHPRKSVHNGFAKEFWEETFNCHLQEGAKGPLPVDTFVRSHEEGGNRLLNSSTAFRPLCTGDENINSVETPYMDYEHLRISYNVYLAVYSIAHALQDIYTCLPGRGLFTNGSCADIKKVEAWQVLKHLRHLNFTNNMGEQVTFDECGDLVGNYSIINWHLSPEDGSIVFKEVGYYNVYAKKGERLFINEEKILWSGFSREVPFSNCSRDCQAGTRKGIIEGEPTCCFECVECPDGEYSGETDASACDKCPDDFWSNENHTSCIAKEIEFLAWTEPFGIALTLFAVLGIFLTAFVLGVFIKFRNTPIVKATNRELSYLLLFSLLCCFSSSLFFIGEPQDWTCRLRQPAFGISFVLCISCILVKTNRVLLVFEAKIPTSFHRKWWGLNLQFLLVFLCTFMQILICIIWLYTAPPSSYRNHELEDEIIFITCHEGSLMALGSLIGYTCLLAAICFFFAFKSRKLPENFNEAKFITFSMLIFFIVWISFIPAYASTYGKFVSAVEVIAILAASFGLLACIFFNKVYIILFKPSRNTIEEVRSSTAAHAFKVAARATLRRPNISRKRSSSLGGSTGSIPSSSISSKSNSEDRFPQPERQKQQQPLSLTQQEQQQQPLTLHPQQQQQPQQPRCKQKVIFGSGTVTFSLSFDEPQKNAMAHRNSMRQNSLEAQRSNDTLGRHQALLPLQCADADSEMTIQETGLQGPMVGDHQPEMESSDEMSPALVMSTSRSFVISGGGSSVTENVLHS", "assay_type": "cell-based", "conditions": "Table 6; rMTC 6-23 cells, fura-2", "source_text": "To assess the effects of molecular polycations on C-cells, a neoplastic cell line, derived from a rat medullary thyroid carcinoma (rMTC 6-23 cells) was used."}, "[3]": {"tested_on": "human parathyroid calcium receptor", "assay": "intracellular calcium in HEK293 cells stably transfected with human calcium receptor", "assay_type": "cell-based", "conditions": "Ca2+ 10 mM; Mg2+ 20 mM; HuPCaR 5.2", "description": "Different cells were tested for response to pure stereoisomers and racemic mixtures. […] Intracellular Ca^2+ was monitored using a fluorimeter. Each point on the graph represents the peak response (highest concentration of intracellular calcium achieved) to the addition of the indicated concentration of the indicated compound.\nCells obtained from the pool of hygromycin selected HEK293 cells transfected with Cep4B containing the HuPCaR 5.2 insert were plated on collagen coated Aklar squares which had been placed into individual wells of 12-well tissue culture plates. Two to six days later, medium was removed and the cells washed with balanced salt solution and 1 ml of buffer containing 1 μM fura2-AM, 1 mM CaCl2 and 0.1% BSA and 1 mM CaCl2. Measurements of fluorescence in response to calcium receptor agonists were performed at 37° C. in a spectrofluorimeter using excitation and emission wavelengths of 340 and 510 nm, respectively. For signal calibration, Fmax was determined after addition of ionomycin (40 μM) and the apparent Fmin was determined by addition of 0.3 M EGTA, 2.5 M Tris-HCl; pH 10.\nAdditional clonal isolates of HEK 293 cells transfected with pHuPCaR4.0 sequence were obtained. These were tested for responsiveness to calcimimetics as described above except that the cells were tested while in suspension. Similar positive results were obtained (FIG. 28b)."}, "[4]": {"tested_on": "parathyroid cell calcium receptor", "assay": "Cl- current in Xenopus oocytes injected with bovine parathyroid cell mRNA", "assay_type": "cell-based", "conditions": "30 μM; oocytes injected with parathyroid cell mRNA", "description": "Following incubation, an oocyte was placed into a 100-μl plastic chamber and superfused with MBS at a flow rate of 0.5 ml/min using a peristaltic pump. Test molecules or inorganic polycations were added by rapidly moving the tubing into different buffers. Recording and current-passing electrodes were constructed from thin-wall capillary tubing pulled to a resistance of 1-3 Mohms and filled with 3 M KCl. […] Currents were recorded directly onto a strip chart recorder."}, "[5]": {"molecular_target": "T2, human parathyroid cell calcium receptor (Homo sapiens, UniProt P41180)", "T2 construct": "T7 cRNA injected into Xenopus oocytes", "T2 sequence (P41180 with tags, fused parts or gaps INS536PLTFVLSVLQ/Q926R/E1011Q)": "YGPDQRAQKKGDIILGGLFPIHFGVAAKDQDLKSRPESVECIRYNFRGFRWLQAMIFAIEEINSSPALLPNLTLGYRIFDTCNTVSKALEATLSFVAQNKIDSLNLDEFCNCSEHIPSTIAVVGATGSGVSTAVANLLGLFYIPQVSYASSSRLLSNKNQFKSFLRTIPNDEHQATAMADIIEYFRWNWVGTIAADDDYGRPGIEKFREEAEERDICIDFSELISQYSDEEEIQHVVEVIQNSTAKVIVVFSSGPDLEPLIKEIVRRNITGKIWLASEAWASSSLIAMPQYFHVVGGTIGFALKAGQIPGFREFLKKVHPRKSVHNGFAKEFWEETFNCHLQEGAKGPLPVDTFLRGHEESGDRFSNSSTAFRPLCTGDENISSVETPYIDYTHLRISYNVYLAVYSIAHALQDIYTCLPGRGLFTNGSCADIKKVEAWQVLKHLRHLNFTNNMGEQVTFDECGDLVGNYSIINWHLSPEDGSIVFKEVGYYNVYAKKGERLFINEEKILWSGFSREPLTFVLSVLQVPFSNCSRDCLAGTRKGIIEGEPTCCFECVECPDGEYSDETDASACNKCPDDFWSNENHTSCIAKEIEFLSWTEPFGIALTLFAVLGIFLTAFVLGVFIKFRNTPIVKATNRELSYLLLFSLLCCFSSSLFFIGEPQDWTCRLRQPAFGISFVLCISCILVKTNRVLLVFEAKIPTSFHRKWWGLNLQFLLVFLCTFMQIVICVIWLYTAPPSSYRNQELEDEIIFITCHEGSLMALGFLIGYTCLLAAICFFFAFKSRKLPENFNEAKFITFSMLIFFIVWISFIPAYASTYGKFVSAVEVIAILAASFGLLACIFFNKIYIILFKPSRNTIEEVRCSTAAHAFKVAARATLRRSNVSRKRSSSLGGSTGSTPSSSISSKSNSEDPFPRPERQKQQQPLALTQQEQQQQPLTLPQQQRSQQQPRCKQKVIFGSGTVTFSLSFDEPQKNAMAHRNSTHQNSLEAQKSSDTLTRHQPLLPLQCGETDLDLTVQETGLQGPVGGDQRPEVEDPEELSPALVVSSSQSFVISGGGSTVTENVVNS", "assay": "Cl- current in Xenopus oocytes expressing human parathyroid cell calcium receptor", "assay_type": "cell-based", "description": "Representative cDNA inserts for both size classes were subcloned into the plasmid vector pBluescript SK. Linearization followed by in vitro transcription using T7 RNA polymerase produced cRNA transcripts. The cRNA transcripts were injected into Xenopus oocytes (150 ng/μl RNA; 50 nl/oocyte) for functional analysis. Following incubation periods of 2-4 days, the oocytes were assayed for the presence of functional calcium receptors. Both clone types gave rise to functional calcium receptors as assessed by the stimulation of calcium-activated chloride currents upon addition of appropriate calcium receptor agonists. […] Thus, both clones encode a functional, human parathyroid cell calcium receptor.\nXenopus oocytes were injected with pHuPCaR 5.2, the 5.2 Kb cDNA encoding a parathyroid cell calcium receptor derived from a human parathyroid cell adenoma. (See Example 27.) After two to three days, Cl^- currents were measured in the oocytes using a two-electrode voltage clamp."}, "[6]": {"tested_on": "serum ionized calcium", "assay": "serum ionized Ca2+ in parathyroidectomized rats", "assay_type": "in vivo, rat", "conditions": "NPS R-467 10 mg/kg i.p., 6 hours; NPS R-568 oral", "description": "To determine the primary target tissue upon which NPS R-467 acts to cause a hypocalcemic response, the parathyroid glands in rats were surgically removed. Animals receiving a total parathyroidectomy become hypocalcemic and are largely dependent upon dietary calcium to maintain serum Ca^2+ homeostasis."}}, "note": "Entries after “also recorded” stand apart in the source; their conditions may differ.", "data": [{"compound": "COc1cccc([C@@H](C)NCCCc2ccccc2)c1", "note": "[NPS R-467, (R)-(+)-N-(3-phenylpropyl)-α-methyl-3-methoxybenzylamine]", "values": [{"measurement": "effect on serum ionized Ca2+, oral", "setting": "[1]", "result": "lowers serum ionized calcium; also recorded: dose-dependent reduction in serum levels of ionized Ca^2+"}, {"measurement": "EC50", "setting": "[2]", "result": 2.2, "unit": "µM"}, {"measurement": "increase in intracellular calcium", "setting": "[3]", "result": "Robust increases in intracellular calcium"}, {"measurement": "effect on Cl- current", "setting": "[4]", "result": "rapid increase in Cl^-"}, {"measurement": "activation of oocyte-expressed receptor", "setting": "[5]", "result": "activated the oocyte-expressed receptor at about the same concentrations"}, {"measurement": "effect on serum ionized Ca2+ in parathyroidectomized rats", "setting": "[6]", "result": "did not cause any change in serum ionized Ca^2+"}]}]}
